Reference: patent US20100222282A1, “METHOD OF DIAGNOSIS AND METHOD OF TREATMENT” (ENTRESS AB, priority 2006, published 2010)

Key:
[1] = rats of the experimental groups
From the text: (§1) The aim of this experiment was to study the relationship between the blood level of AKG and survival of elderly rats. Forty Sprague-Dawley rats randomly chosen (2-3 years old) from the Department of Cell & Organisms Biology in Lund University were used in the experiment. The rats were divided into four groups, 10 rats each, two control groups and two experiment groups. […] The mixtures were titrated with 0.01 M NaOH to correct the pH.
(§2) Blood samples were taken at the beginning of the experiment from all rats and blood AKG levels were estimated. Experimental time was 8 weeks and parameters as AKG blood levels and survival were monitored.

[2] = tested on: Sprague-Dawley rats (2-3 years old); details: experimental groups, 8 weeks
From the text: as §1, §2

O=C([O-])CCC(=O)C(=O)[O-].[Na+].[Na+] [Na2AKG * 2H2O, sodium alpha-ketoglutarate]
Blood levels of AKG after oral feeding [1]: over 0.5 μg/ml
Survival of rats with initially low blood AKG (under 0.1 μg/ml) [2]: did survive the whole experiment
